Results as given in patent publication US8741871B2, “Trehalose compound, method for producing same, and pharmaceutical product containing the compound” (priority 2008, dated 2014).

Key:
[1] = test system: Welch bacillus (Type A; NTCT8237); assay type: in vivo
Description: As test compounds, 1 mg each of the compound synthesized by the method described in Production Example α-1 and TDCM were weighed. Emulsion solutions of the test compounds (1 mg/ml) were prepared in the same manner as described above.
[…] of Brain Heart Infusion (BHI) (Difco) powders were dissolved in 200 ml of distilled water. 40 ml of the obtained solution (hereinafter this solution is referred to as a “BHI medium”) was withdrawn with a measuring pipette, and it was then added to a 200-ml flask, followed by performing a high-pressure steam sterilization (121° C., 20 minutes). In addition, 5 ml of the BHI medium was added to two screw-top test tubes, and they were then subjected to a high-pressure steam sterilization. Moreover, a glass tube-equipped rubber plug (with a cotton plug) and a glass tube were also subjected to a high-pressure steam sterilization. In a clean bench, an appropriate amount of bacteria for preservation, which had grown on a cooked meat medium, was collected with a sterilized Pasteur pipette, and it was then inoculated on the BHI medium in the aforementioned sterilized screw-top test tube. Subsequently, it was incubated at 37° C. overnight.
In a clean bench, bacteria that had grown in the screw-top test tube (wherein the inside of the […] in which bacteria had grown became clouded, and gas was generated) was transferred into a 200-ml Erlenmeyer flask, which contained 40 ml of BHI medium. A glass tube was inserted into the medium, so as to carry out nitrogen substitution for 10 minutes. Subsequently, the glass tube-equipped rubber plug (with a cotton plug) was equipped in the Erlenmeyer flask (since Welch bacillus generates gas, it is necessary to make an air vent), and incubation was then carried out at 37° C. for 4 to 5 hours. Thereafter, the cultured Welch bacillus was transferred into a centrifuge tube, it was then centrifuged (9000 rpm, 15 minutes), and the supernatant was then removed. 20 ml of sterilized normal saline solution was added to the precipitate, so that the bacteria were suspended therein. The suspension was centrifuged (9000 rpm, 15 minutes), and the supernatant was then removed.
Mice (ICR, 6-week-old) were divided into three groups, and the following test was then carried out.
An emulsion solution containing the test compound, an emulsion solution containing TDCM, or an emulsion solution alone, which was to be used as a control, was intraperitoneally administered in an amount of 100 μg/mouse to a group of four mice (100 μl/mouse, in the case of the emulsion solution alone). Three hours later, Welch bacillus (2.4×10^7 cells/mouse) was intraperitoneally administered to the mice. Thereafter, the condition of the mice was observed.

rabbit neutrophils = experiment: Measurement of amount of active oxygen released from rabbit neutrophils; assay type: cell-based; conditions: 50 μM, 2 hours; FIG. 3
Description: 5 ml of the ACD solution was placed in a 20-ml syringe (injection needle [Nipro]), so that the inside of the syringe was entirely rinsed therewith. 20 ml of blood was collected from the central auricular artery of a rabbit using the syringe, and the collected blood was gently shaken upside down. Thereafter, the blood was dispensed into three centrifuge tubes (15 ml type; Falcon), and each tube was then subjected to centrifugation at 4° C. at 1,500 rpm for 5 minutes. Thereafter, the supernatant was recovered into a centrifuge tube (50 ml type; Falcon). A 1.2% dextran-PBS solution was added to the recovered supernatant in an amount equal the supernatant, and the obtained mixture was then gently shaken upside down. Thereafter, the mixture was left at a room temperature for 30 minutes or more. The emergence of an interface was confirmed, and the supernatant was placed in a new centrifuge tube (50 ml type; Falcon). […]
The influence of the test compound on the release of active oxygen from rabbit neutrophils was measured by the following procedures.
Neutrophils (1.0×10^5 cells/100 μl) were plated on a 96-well plate (Falcon). […] The obtained mixture was incubated at 37° C. for 2 hours, and the amount of active oxygen released was measured using a fluorescence measurement apparatus (Ex: 485 nm, Em: 535 nm).

[2] = test system: breast cancer cells (FM3A cells); assay type: in vivo; conditions: 100 μg/mouse i.p. twenty-four hours before FM3A inoculation, nineteen days later
Description: The 100 μg/mouse test compound obtained in Example 9 (emulsion solution) was intraperitoneally administered to each mouse, and twenty-four hours later, breast cancer cells (FM3A cells) were inoculated into the abdominal cavity thereof. Nineteen days later, the body weight of each mouse was measured. In addition, the tissue sections of diaphragm, pancreas and testis were subjected to HE staining, and they were then observed under a microscope. As a result, the body weight of the breast cancer cell-inoculated mouse was increased by approximately 10 g, when compared with a control mouse, and it was observed that the mouse contained a large amount of ascites fluid.

| SMILES | Number of surviving mice/number of treated mice, 2 hours later ([1]; 100 μg/mouse i.p. three hours before Welch bacillus 2.4×10^7 cells/mouse i.p., 2 hours later) | Number of surviving mice/number of treated mice, 6 hours later ([1]; 100 μg/mouse i.p. three hours before Welch bacillus 2.4×10^7 cells/mouse i.p., 6 hours later) | Number of surviving mice/number of treated mice, 12 hours later ([1]; 100 μg/mouse i.p. three hours before Welch bacillus 2.4×10^7 cells/mouse i.p., 12 hours later) | Number of surviving mice/number of treated mice, 24 hours later ([1]; 100 μg/mouse i.p. three hours before Welch bacillus 2.4×10^7 cells/mouse i.p., 24 hours later) | Number of surviving mice/number of treated mice, 48 hours later ([1]; 100 μg/mouse i.p. three hours before Welch bacillus 2.4×10^7 cells/mouse i.p., 48 hours later) | mice that escaped death in Welch bacillus lethal models ([1]; 100 μg/mouse i.p., text summary of Table 4) | action to activate the release of active oxygen from rabbit neutrophils, compared with TDCM (rabbit neutrophils) | body weight of breast cancer cell-inoculated mouse [2] | infiltration and metastasis of the cancer cells into various organs (diaphragm, pancreas, testis) ([2]; HE staining, FIG. 20) |
| --- | --- | --- | --- | --- | --- | --- | --- | --- | --- |
| CCCCCCCCCCC(CCCCCCCCCC)C(=O)OCC1O[C@H](O[C@H]2OC(COC(=O)C(CCCCCCCCCC)CCCCCCCCCC)[C@@H](O)C(O)C2O)C(O)C(O)[C@@H]1O (stereo partly drawn) [Example 1, 6,6′-bis-O-(2-decyldodecanoyl)-α,α′-trehalose] | 4/4 | 4/4 | 4/4 | 3/4 | 3/4 | three out of the four mice | approximately two times higher than the activity of TDCM | – | – |
| CCCCCCCCCC(CCCCCCCCC)CC(=O)OCC1O[C@H](O[C@H]2OC(COC(=O)CC(CCCCCCCCC)CCCCCCCCC)[C@@H](O)C(O)C2O)C(O)C(O)[C@@H]1O (stereo partly drawn) [Example 9, 6,6′-bis-O-(3-nonyldodecanoyl)-α,α′-trehalose] | – | – | – | – | – | – | – | equivalent to that of a control mouse | not observed at all |
